Test results as given in patent US20220386606A1, “SPECIFICALLY SUBSTITUTED 3-PHENYL-5-SPIROCYCLOPENTYL-3-PYRROLIN-2-ONES AND THEIR USE AS HERBICIDES” (Bayer Aktiengesellschaft, priority 2019, published 2022).

Key:
SETVI [1] = test: Post-emergence herbicidal action against SETVI; format: in vivo, Setaria viridis; conditions: 80 g/ha, visual assessment about 3 weeks after treatment vs untreated controls
In short: (§1)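 Visual scoring about 3 weeks after treatment gave % herbicidal action relative to untreated plants (0% = control-like, 100% = plants dead). Compounds, as WP or EC with 0.2% wetting agent, were sprayed onto green parts at 600–800 l/ha. Plants had reached the one-leaf stage, 2–3 weeks after sowing in sandy loam under greenhouse conditions.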

LOLRI [2] = test: Post-emergence herbicidal action against LOLRI; format: in vivo, Lolium rigidum; conditions: 80 g/ha, visual assessment about 3 weeks after treatment vs untreated controls
In short: as §1

AVEFA [3] = test: Post-emergence herbicidal action against AVEFA; format: in vivo, Avena fatua; conditions: 80 g/ha, visual assessment after about 3 weeks
In short: as §1

ALOMY [4] = test: Post-emergence herbicidal action against ALOMY; format: in vivo, Alopecurus myosuroides; conditions: 80 g/ha, visual assessment after about 3 weeks
In short: as §1

SETVI [5] = test: Pre-emergence herbicidal action against SETVI; format: in vivo, Setaria viridis; conditions: 320 g/ha, scored visually after 3 weeks vs untreated controls
In short: (§2)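 Herbicidal activity is expressed as percent visual damage compared with untreated controls, where 100% means dead plants, assessed 3 weeks after pre-emergence treatment of sown, soil-covered seeds in sandy loam under greenhouse conditions.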

ECHCG [6] = test: Pre-emergence herbicidal action against ECHCG; format: in vivo, Echinochloa crus-galli; conditions: 320 g/ha, scored visually after 3 weeks vs untreated controls
In short: as §2

AMARE = test: Pre-emergence herbicidal action against AMARE; format: in vivo, Amaranthus retroflexus; conditions: 320 g/ha
In short: as §2

DIGSA [7] = test: Post-emergence herbicidal action against DIGSA; format: in vivo, Digitaria sanguinalis; conditions: 80 g/ha, visual assessment about 3 weeks after treatment vs untreated controls
In short: as §1

POLCO = test: Pre-emergence herbicidal action against POLCO; format: in vivo, Polygonum convolvulus; conditions: 320 g/ha
Text: Seeds of monocotyledonous and dicotyledonous weed plants and crop plants are laid out in sandy loam soil in wood-fiber pots and covered with soil. The compounds of the invention, formulated in the form of wettable powders (WP) or as emulsion concentrates (EC), are then applied to the surface of the covering soil as aqueous suspension or emulsion at a water application rate equating to 600 to 800 L/ha with addition of 0.2% wetting agent.
After the treatment, the pots are placed in a greenhouse and kept under good growth conditions for the trial plants. The damage to the test plants is scored visually after a test period of 3 weeks by comparison with untreated controls (herbicidal activity in percent (%): 100% activity=the plants have died, 0% activity=like control plants).

VERPE = test: Pre-emergence herbicidal action against VERPE; format: in vivo, Veronica persica; conditions: 320 g/ha
In short: as §2

ALOMY [8] = test: Pre-emergence herbicidal action against ALOMY; format: in vivo, Alopecurus myosuroides; conditions: 320 g/ha, scored visually after 3 weeks vs untreated controls
In short: as §2

MATIN = test: Pre-emergence herbicidal action against MATIN; format: in vivo; conditions: 320 g/ha
In short: as §2

LOLRI [9] = test: Pre-emergence herbicidal action against LOLRI (Table 8, titled post-emergence at 320 g/ha); format: in vivo, Lolium rigidum; conditions: table stands in the pre-emergence section
In short: as §2

DIGSA [10] = test: Pre-emergence herbicidal action against DIGSA; format: in vivo, Digitaria sanguinalis; conditions: 320 g/ha, scored visually after 3 weeks vs untreated controls
In short: as §2

AVEFA [11] = test: Pre-emergence herbicidal action against AVEFA; format: in vivo, Avena fatua; conditions: 320 g/ha, scored visually after 3 weeks vs untreated controls
In short: as §2

ECHCG [12] = test: Post-emergence herbicidal action against ECHCG; format: in vivo, Echinochloa crus-galli; conditions: 80 g/ha, visual assessment about 3 weeks after treatment vs untreated controls
In short: as §1

VIOTR = test: Pre-emergence herbicidal action against VIOTR; format: in vivo, Viola tricolor; conditions: 320 g/ha
In short: as §2

HORMU = test: Post-emergence herbicidal action against HORMU; format: in vivo, Hordeum murinum; conditions: 80 g/ha, visual assessment about 3 weeks after treatment vs untreated controls
Method: (§3) Seeds of monocotyledonous and dicotyledonous weed and crop plants are laid out in sandy loam soil in wood-fiber pots, covered with soil and cultivated in a greenhouse under good growth conditions. 2 to 3 weeks after sowing, the test plants are treated at the one-leaf stage. The compounds of the invention, formulated in the form of wettable powders (WP) or as emulsion concentrates (EC), are then sprayed onto the green parts of the plants as aqueous suspension or emulsion at a water application rate equating to 600 to 800 l/ha with addition of 0.2% wetting agent. After the test plants have been left to stand in the greenhouse under optimal growth conditions for about 3 weeks, the action of the preparations is assessed visually in comparison to untreated controls (herbicidal action in percent (%): 100% activity=the plants have died, 0% activity=like control plants).

ABUTH = test: Post-emergence herbicidal action against ABUTH; format: in vivo, Abutylon threophrasti; conditions: 80 g/ha, visual assessment about 3 weeks after treatment vs untreated controls
Method: as §3

SMILES | Post-emergence action against SETVI in % (SETVI [1]) [%] | Post-emergence action against LOLRI in % (LOLRI [2]) [%] | Post-emergence action against AVEFA in % (AVEFA [3]) [%] | Post-emergence action against ALOMY in % (ALOMY [4]) [%] | Pre-emergence action against SETVI in % (SETVI [5]) [%] | Pre-emergence action against ECHCG in % (ECHCG [6]) [%] | Pre-emergence action against AMARE in % (AMARE) [%] | Post-emergence action against DIGSA in % (DIGSA [7]) [%] | Pre-emergence action against POLCO in % (POLCO) [%] | Pre-emergence action against VERPE in % (VERPE) [%] | Pre-emergence action against ALOMY in % (ALOMY [8]) [%] | Pre-emergence action against MATIN in % (MATIN) [%] | Pre-emergence herbicidal action against LOLRI in % (LOLRI [9]) [%] | Pre-emergence action against DIGSA in % (DIGSA [10]) [%] | Pre-emergence action against AVEFA in % (AVEFA [11]) [%] | Post-emergence action against ECHCG in % (ECHCG [12]) [%] | Pre-emergence action against VIOTR in % (VIOTR) [%] | Post-emergence action against HORMU in % (HORMU) [%] | Post-emergence action against ABUTH in % (ABUTH) [%]
C#CCOCC1CCC2(C1)NC(=O)C(c1c(C)cc(C#CC)cc1Cl)=C2O (stereo not shown) [Example I-79] | 100 | 100 | 90 | 90 | 100 | 100 | 100 | 100 | 90 | 80 | 100 | 90 | 100 | 100 | 100 | 100 | 100 | – | –
CC#Cc1cc(C)c(C2=C(OC(=O)OCC)C3(CCC(COCC)C3)NC2=O)c(Cl)c1 (stereo not shown) [Example P-11] | 100 | 100 | 100 | 80 | – | – | – | 100 | – | – | – | – | – | – | – | – | – | 100 | –
CC#Cc1cc(C)c(C2=C(OC(=O)C(C)C)C3(CCC(COC)C3)NC2=O)c(Br)c1 (stereo not shown) [Example P-33] | 100 | 100 | 90 | 100 | 100 | 100 | 100 | 100 | 100 | 80 | 100 | – | 100 | 100 | 100 | – | 100 | – | 80
CC#Cc1cc(C)c(C2=C(OC(=O)C(C)C)C3(CCC(COCC)C3)NC2=O)c(OC)c1 (stereo not shown) [Example P-60] | 100 | 100 | 100 | 100 | 100 | 100 | 100 | 90 | 80 | 80 | 100 | 90 | 100 | 100 | 100 | 100 | 100 | – | –
CC#Cc1cc(C)c(C2=C(OC(=O)OCC)C3(CCC(COCCOC)C3)NC2=O)c(OC)c1 (stereo not shown) [Example P-80] | 100 | 90 | 90 | 100 | 100 | 100 | 90 | 90 | 90 | 100 | 100 | 90 | 100 | 100 | 100 | 100 | 100 | – | –
